Tests used:
[1] = tested on: total acidity of the gastric juice; test: Gastric anti-secretory activity (Shay, pylorus-ligated rats); assay type: in vivo, rat; details: 10 mg/kg, intraduodenally, male rats, 3 hours
Protocol: (1) Determination of the gastric anti-secretory activity
The technique used is described by H. Shay et al in Gastroenterology 5, 43 (1945).
Male rats were used, each having a weight of about 200 g (ten animals per lot), which had been without food for 48 hours but were allowed 8% glucose solution ad libitum. After the rats were slightly anesthetized with ether, the pylorus of each was ligated. At the end of the operation, different doses of the product to be tested, or in the case of the control animals a 0.5% carboxymethyl cellulose solution, were administered intraduodenally, whereupon the abdominal incision was sutured.
Three hours later, the animals were sacrificed and their stomachs removed after ligating the esophagus. The gastric juice was removed and centrifuged. The volume of gastric juice obtained was then measured and the total acidity of the gastric juice obtained was established by titrating a 100 μL sample of gastric juice to a pH of 7 with 1/10 N Sodium hydroxide aqueous solution. The total acidity was determined.
The percentage of variation of total acidity between the results from test animals and results from control animals were calculated.

[2] = tested on: ulcers in the stomachs of rats; test: Anti-ulcer activity, stress ulcer (stress and cold); assay type: in vivo, rat; details: 10 mg/kg, by esophageal tube, female rats, stress at 8° C. for two hours
Protocol: (2) Determination of the anti-ulcer activity
The technique consists in inducing ulcers in the stomachs of rats by stress (stress and cold). The technique used is described by E. C. Senay and R. J. Levine, Proc. Soc. Ex. Biol. 124, 1221 (1967).
Female rats of 150 g (5 animals per lot) were used which had fasted for 48 hours with water ad libitum and glucose solution for 8 hours. The animals were given the test product, or a 0.5% solution of carboxymethyl cellulose in the case of the control animals, by esophageal tube. Two hours later, the animals were wrapped in a jacket of netting. Their paws were bound and the entire unit was placed in a refrigerator at 8° C. for two hours. The rats were freed and killed with ether. Their stomachs were removed, opened along the greater curvature and examined with a binocular magnifier. The seriousness of the lesions was rated from 0 to 3 for each stomach.
The average intensity of the ulcerations was calculated for each lot of rats. The difference in the degree of ulceration between test animals and control animals was determined and calculated as a percentage.

[3] = Acute toxicity; details: mouse, in vivo, po; per os, mice
Protocol: (3) Determination of the acute toxicity
The LD50 was evaluated after administration of the product per os in mice.

| SMILES | Anti-secretory activity (% variation as compared with the controls), Acid Concentration [1] [%] | Anti-ulcer activity (% variation as compared with the controls), Ulceration [2] [%] | LD50 [3] [mg/kg] |
| --- | --- | --- | --- |
| O=C(O)C=CC(=O)c1ccccc1O [Example 1, 4-(2-hydroxyphenyl)-4-oxobuten-2-oic acid] | -65 | -35 | 350 |
| COc1ccc(C(=O)C=CC(=O)O)cc1 [Example 2, 4-(4-methyoxyphenyl)-4-oxobuten-2-oic acid] | -66 | -73 | 500 |

Source: patent publication US4454155A, “Pharmaceutical compositions containing a mono-substituted derivative of 4-phenyl-4-oxobuten-2-oic acid, and methods of using them in treating gastric and gastroduodenal ailments” (Roussel UCLAF, priority 1981, dated 1984)
